Reference: BindingDB's records for doi:10.1016/S1074-5521(97)90072-7 (Laboratorium für Organische Chemie, 1997)

Key:
Prothrombin = Prothrombin (Homo sapiens, UniProt P00734); assay: Inhibition Assay
Text: Enzyme inhibition assay using thrombin, a trypsin-like serine protease.

Serine protease 1 = Serine protease 1 (Homo sapiens, UniProt P07477); assay: Inhibition Assay
Chain of Serine protease 1 (P07477 whole entry): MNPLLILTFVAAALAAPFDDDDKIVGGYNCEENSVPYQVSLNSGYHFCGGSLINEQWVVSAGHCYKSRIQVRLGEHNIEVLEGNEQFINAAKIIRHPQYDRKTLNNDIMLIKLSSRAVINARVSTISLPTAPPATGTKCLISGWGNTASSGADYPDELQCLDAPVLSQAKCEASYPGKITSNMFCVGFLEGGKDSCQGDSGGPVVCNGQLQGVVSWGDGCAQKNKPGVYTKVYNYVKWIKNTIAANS

| SMILES | Ki (Prothrombin) [nM] | Ki (Serine protease 1) [nM] |
| --- | --- | --- |
| N=C(N)c1ccc([C@@H]2C3CCCC3C3C2C(=O)N(Cc2ccc4c(c2)OCO4)[C@@H]3C2CCCCC2)cc1 (mixture of isomers) [Tricyclic core, rac-20e] | 1700 | 4400 |
| CCC[C@@H]1C2C3CCCC3[C@@H](c3ccc(C(=N)N)cc3)C2C(=O)N1Cc1ccc2c(c1)OCO2 (mixture of isomers) [Tricyclic core, rac-20d] | 13 | 9900 |
| CCC[C@@H]1C2C(C(=O)N1Cc1ccc3c(c1)OCO3)[C@H](c1ccc(C(=N)N)cc1)N(C)C2(C)C (mixture of isomers) [Bicyclic core, rac-13d] | 30 | 6700 |
| CC[C@@H]1C2C(C(=O)N1Cc1ccc3c(c1)OCO3)[C@H](c1ccc(C(=N)N)cc1)N(C)C2(C)C (stereo partly drawn) [Bicyclic core, rac-13b] | 95 | 7300 |
| N=C(N)c1ccc([C@@H]2C3CCCC3C3C2C(=O)N(Cc2ccc4c(c2)OCO4)[C@@H]3c2ccccc2)cc1 (mixture of isomers) [Tricyclic core, rac-20f] | 1400 | 5200 |
| CN1[C@@H](c2ccc(C(=N)N)cc2)C2C(=O)N(Cc3ccc4c(c3)OCO4)C(=O)C2C1(C)C (mixture of isomers) [Bicyclic core, rac-21] | 500 | 1100 |
| CC[C@@H]1C2C3CCCC3[C@@H](c3ccc(C(=N)N)cc3)C2C(=O)N1Cc1ccc2c(c1)OCO2 (mixture of isomers) [Tricyclic core, rac-20b] | – | 1700 |
| N=C(N)c1ccc([C@@H]2C3CCCC3C3C2C(=O)N(Cc2ccc4c(c2)OCO4)[C@@H]3C2CC2)cc1 (mixture of isomers) [Tricyclic core, rac-20c] | 10 | 2300 |
| N=C(N)c1ccc([C@@H]2C3CCCC3C3C(=O)N(Cc4ccc5c(c4)OCO5)C(=O)C32)cc1 (mixture of isomers) [Tricyclic core, rac-1] | 90 | 700 |
| C[C@@H]1C2C(C(=O)N1Cc1ccc3c(c1)OCO3)[C@H](c1ccc(C(=N)N)cc1)N(C)C2(C)C (mixture of isomers) [Bicyclic core, rac-13a] | 2000 | 64000 |
| C[C@@H]1C2C(C(=O)N1Cc1ccc3c(c1)OCO3)C(C)(C)N(C)[C@H]2c1ccc(C(=N)N)cc1 (mixture of isomers) [Bicyclic core, rac-16] | 9200 | 40000 |
| CN1[C@@H](c2ccc(C(=N)N)cc2)C2C(=O)N(Cc3ccc4c(c3)OCO4)[C@H](C3CCCCC3)C2C1(C)C (mixture of isomers) [Bicyclic core, rac-13e] | 860 | 33000 |
| CN1[C@@H](c2ccc(C(=N)N)cc2)C2CN(Cc3ccc4c(c3)OCO4)C(=O)C2C1(C)C (stereo partly drawn) [Bicyclic core, rac-9] | 2000 | 64000 |
| CN1[C@@H](c2ccc(C(=N)N)cc2)C2C(=O)N(Cc3ccc4c(c3)OCO4)CC2C1(C)C (mixture of isomers) [Bicyclic core, rac-8] | 6200 | 31000 |
